Measured values as given in patent US11279735B2, “Cyclic peptide antibiotics” (priority 2017, dated 2022).
In brackets after ≈: the same amount, converted by molar mass. *1 amine or outer side, *2 acyl side, *3 side chain or, on linkers, in order; H or OH if unused. Where a SMILES comes first, the peptide text is derived from it. [ ]: non-standard residue; d: D form. X12 = C[C@H](CO[C@H](CC12CC3CC(CC(C3)C1)C2)[C@@H](C)C(=O)[*:2])N[*:1]; X13 = C[C@H](CO[C@H](CC1CC2(CCC2)C1)[C@@H](C)C(=O)[*:2])N[*:1]; aThr = C[C@H](O)[C@H](N)C(=O)O; NMeL = CN[C@@H](CC(C)C)C(=O)O; Chg = N[C@H](C(=O)O)C1CCCCC1; NMeNva = CCC[C@H](NC)C(=O)O; Dap = NC[C@H](N)C(=O)O

The molecules below were run on Escherichia coli (E. coli) strain CFT073 ATCC 700928. Conditions: ATCC 700928, 22 h.
Assay type: cell-based
Outline: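 Broth microdilution MIC per CLSI M07-A8 in cation-adjusted Mueller Hinton II broth with 0.002% Tween-80. Ten-point 2-fold series topped at 64, 4, 0.5 or 0.13 μg/mL depending on protocol. Final inoculum OD600 0.0005, incubated 22 h at 35 °C.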
With `CCCCCCCCCC[C@H]1OC(=O)CNC(=O)[C@H]([C@H](C)O)NC(=O)[C@H](CN)NC(=O)[C@H]([C@H](C)CC)NC(=O)[C@H](CCC(C)C)N(C)C(=O)[C@@H]1C` [Example 15, (6S,9S,12S,15S,18R,19R)-9-(aminomethyl)-19-decyl-6-[(1S)-1-hydroxyethyl]-15-isopentyl-16,18-dimethyl-12-[(1R)-1-methylpropyl]-1-oxa-4,7,10,13,16-pentazacyclononadecane-2,5,8,11,14,17-hexone] the MIC was 6.3 µM (≈ 4.57 µg/mL). `CCCCCCCCCC[C@H]1OC(=O)CNC(=O)[C@H](CO)NC(=O)[C@H](CO)NC(=O)[C@H](C(C)C)NC(=O)[C@H](CC(C)C)N(C)C(=O)[C@@H]1C` [Example 39, (6S,9S,12S,15S,18R,19R)-19-decyl-6,9-bis(hydroxymethyl)-15-isobutyl-12-isopropyl-16,18-dimethyl-1-oxa-4,7,10,13,16-pentazacyclononadecane-2,5,8,11,14,17-hexone] gave an MIC of 25 µM (≈ 17.1 µg/mL). Molecule `CCCCCC[C@H]1OC[C@@H](C)NC(=O)[C@H](CNCCN)NC(=O)[C@H](CN)NC(=O)[C@H](C2CCCCCC2)NC(=O)[C@H](CC(C)C)N(C)C(=O)[C@@H]1C` [Example 161, (3R,6S,9S,12S,15S,18R,19R)-6-[(2-Aminoethylamino)methyl]-9-(aminomethyl)-12-cycloheptyl-19-hexyl-15-isobutyl-3,16,18-trimethyl-1-oxa-4,7,10,13,16-pentazacyclononadecane-5,8,11,14,17-pentone] has an MIC of 6.3 µM (≈ 4.56 µg/mL). `CC(C)C[C@H]1C(=O)N[C@@H](C2CCCCC2)C(=O)N[C@@H](CN)C(=O)N[C@@H]([C@H](C)O)C(=O)NCC(=O)O[C@H](CCCCC(F)CF)[C@@H](C)C(=O)N1C` (stereo partly drawn) [Example 117, (6S,9S,12S,15S,18R,19R)-9-(aminomethyl)-12-cyclohexyl-19-(5,6-difluorohexyl)-15-isobutyl-16,18-dimethyl-6-[(1S)-1-hydroxyethyl]-1-oxa-4,7,10,13,16-pentazacyclononadecane-2,5,8,11,14,17-hexone] showed an MIC of 25 µM (≈ 17.9 µg/mL). For `CCC[C@H]1C(=O)N[C@@H](C2CCCCC2)C(=O)N[C@@H](CN)C(=O)N[C@@H]([C@H](C)O)C(=O)N[C@H](C)CO[C@H](CC2CC3(CCC3)C2)[C@@H](C)C(=O)N1C` [Example 156, (3R,6S,9S,12S,15S,18R,19R)-9-(Aminomethyl)-12-cyclohexyl-6-((S)-1-hydroxyethyl)-3,16,18-trimethyl-15-propyl-19-(spiro[3.3]heptan-2-ylmethyl)-1-oxa-4,7,10,13,16-pcntaazacyclononadecane-5,8,11,14,17-pentaone] (cyclo([Chg][Dap][aThr][X13][NMeNva])), the MIC was 2.2 µM (≈ 1.52 µg/mL). `CC(C)C[C@H]1C(=O)N[C@@H](C2CCCCC2)C(=O)N[C@@H](CN)C(=O)N[C@@H]([C@H](C)O)C(=O)N[C@H](C)CO[C@H](CC23CC4CC(CC(C4)C2)C3)[C@@H](C)C(=O)N1C` [Example 74, (3R,6S,9S,12S,15S,18R,19R)-19-(((1r,3R,5S)-Adamantan-1-yl)methyl)-9-(aminomethyl)-12-cyclohexyl-6-((S)-1-hydroxyethyl)-15-isobutyl-3,16,18-trimethyl-1-oxa-4,7,10,13,16-pentaazacyclononadecane-5,8,11,14,17-pentaone] (cyclo([Chg][Dap][aThr][X12][NMeL])) showed an MIC of 1.6 µM (≈ 1.19 µg/mL). Work on `CCCCCC[C@H]1OC(=O)CNC(=O)[C@H]([C@H](C)O)NC(=O)[C@H](CN)NC(=O)[C@H](C2CCCCC2)NC(=O)[C@H](CCC)N(C)C(=O)[C@@H]1C` [Example 101, (6S,9S,12S,15S,18R,19R)-9-(aminomethyl)-12-cyclohexyl-19-hexyl-16,18-dimethyl-15-propyl-6-[(1S)-1-hydroxyethyl]-1-oxa-4,7,10,13,16-pentazacyclononadecane-2,5,8,11,14,17-hexone] yielded an MIC of 4.1 µM (≈ 2.73 µg/mL). `CCCCCCCCCC[C@H]1OC(=O)CNC(=O)[C@H]([C@H](C)O)NC(=O)[C@H](CN)NC(=O)[C@H]([C@H](C)CC)NC(=O)[C@H](CCC)N(C)C(=O)[C@@H]1C` [Example 14, (6S,9S,12S,15S,18R,19R)-9-(aminomethyl)-19-decyl-6-[(1S)-1-hydroxyethyl]-16,18-dimethyl-12-[(1R)-1-methylpropyl]-15-propyl-1-oxa-4,7,10,13,16-pentazacyclononadecane-2,5,8,11,14,17-hexone] was tested, and the MIC was 3.1 µM (≈ 2.16 µg/mL). Molecule `CCCCCC[C@H]1OC(=O)CNC(=O)[C@H]([C@H](C)O)NC(=O)[C@H](CN)NC(=O)[C@H](C2CC3(CCC3)C2)NC(=O)[C@H](CC(C)C)N(C)C(=O)[C@@H]1C` [Example 55, (6S,9S,12S,15S,18R,19R)-9-(aminomethyl)-19-hexyl-6-((S)-1-hydroxyethyl)-15-isobutyl-16,18-dimethyl-12-(spiro[3.3]heptan-2-yl)-1-oxa-4,7,10,13,16-pentaazacyclononadecane-2,5,8,11,14,17-hexaone] has an MIC of 18 µM (≈ 12.5 µg/mL). In the case of `CCCCCC[C@H]1OC[C@@H](C)NC(=O)[C@H](CNCCO)NC(=O)[C@H](CN)NC(=O)[C@H](C2CCCCCC2)NC(=O)[C@H](CC(C)C)N(C)C(=O)[C@@H]1C` [Example 169, (3R,6S,9S,12S,15S,18R,19R)-9-(Aminomethyl)-12-cycloheptyl-19-hexyl-6-(((2-hydroxyethyl)amino)methyl)-15-isobutyl-3,16,18-trimethyl-1-oxa-4,7,10,13,16-pentaazacyclononadecane-5,8,11,14,17-pentaone], the MIC is reported as 6.3 µM (≈ 4.56 µg/mL). `CCCCCC(C)[C@H]1OC(=O)CNC(=O)[C@H]([C@H](C)O)NC(=O)[C@H](CN)NC(=O)[C@H](C2CCCCC2)NC(=O)[C@H](CC(C)C)N(C)C(=O)[C@@H]1C` (stereo partly drawn) [Example 126, (6S,9S,12S,15S,18R,19R)-9-(aminomethyl)-12-cyclohexyl-15-isobutyl-16,18-dimethyl-19-(1-methylhexyl)-6-[(1S)-1-hydroxyethyl]-1-oxa-4,7,10,13,16-pentazacyclononadecane-2,5,8,11,14,17-hexone] gave an MIC of 3.1 µM (≈ 2.15 µg/mL). In the case of `CCCCCC[C@H]1OC(=O)CNC(=O)[C@H]([C@H](C)O)NC(=O)[C@H](CN)NC(=O)[C@H](C2CCCCC2)NC(=O)[C@H](CC(C)C)N(C)C(=O)[C@@H]1CC1CCCCC1` [Example 135, (6S,9S,12S,15S,18R,19R)-9-(aminomethyl)-12-cyclohexyl-18-(cyclohexylmethyl)-19-hexyl-15-isobutyl-16-methyl-6-[(1S)-1-hydroxyethyl]-1-oxa-4,7,10,13,16-pentazacyclononadecane-2,5,8,11,14,17-hexone], the MIC is reported as 3.7 µM (≈ 2.82 µg/mL). Work on `CCCCCCCCCC[C@H]1OC(=O)[C@H](C)NC(=O)[C@H]([C@H](C)O)NC(=O)[C@H](CO)NC(=O)[C@H]([C@@H](C)CC)NC(=O)[C@H](CC(C)C)N(C)C(=O)[C@@H]1C` [Example 33, (3S,6S,9S,12S,15S,18R,19R)-19-decyl-6-[(1S)-1-hydroxyethyl]-9-(hydroxymethyl)-15-isobutyl-3,16,18-trimethyl-12-[(1S)-1-methylpropyl]-1-oxa-4,7,10,13,16-pentazacyclononadecane-2,5,8,11,14,17-hexone] yielded an MIC of 13 µM (≈ 9.44 µg/mL). Molecule `CCCCCC[C@H]1OC(=O)CNC(=O)[C@H]([C@H](C)O)NC(=O)[C@H](CO)NC(=O)[C@H](C2CCCCC2)NC(=O)[C@H](CCC)N(C)C(=O)[C@@H]1C` [Example 132, (6S,9S,12S,15S,18R,19R)-12-cyclohexyl-19-hexyl-9-(hydroxymethyl)-16,18-dimethyl-15-propyl-6-[(1S)-1-hydroxyethyl]-1-oxa-4,7,10,13,16-pentazacyclononadecane-2,5,8,11,14,17-hexone] has an MIC of 6.1 µM (≈ 4.07 µg/mL).
